In patent US10016378B2, “Compositions and methods for inhibiting intimal hyperplasia” (priority 2014, dated 2018):
Entries after “also recorded” stand apart in the source; their conditions may differ.

Legend:
[1] = tested on: balloon-injured rat aortas; assay: Balloon injury (abdominal aortic denudation) of Lewis rat aortas; type: in vivo, Lewis rats
Description: For example, abdominal aortic denudation in Lewis rats was performed to induce neointimal proliferation. […] The development of intimal hyperplasia was analyzed by histopathology. Confocal immunofluorescence microscopy and 3-dimensional reconstruction was performed to identify cell proliferation (Ki67) and apoptosis (TUNEL).

[2] = Side-effects in the various in vivo models
human vascular SMCs = assay: Cultured human vascular SMCs, PDGF stimulation / staurosporine apoptosis induction; type: cell-based; conditions: VDAC closure/inhibition
Text: Proliferation and apoptosis leveled off after twenty eight (28) days when there was also no further progression of myointimal disease (FIGS. 1c, 1e). […] Human vascular SMCs were isolated from fresh hMA and characterized (Extended Data FIGS. 4e-4f). PDGF was then shown to induce ΔΨm hyperpolarization in cultured SMCs (Extended Data FIG. 4g), similar to the ΔΨm hyperpolarization previous observed in injured hMAs (FIG. 1f). Thus, mitochondrial ΔΨm hyperpolarization in myointimal SMCs and cultured SMCs coincided with the availability of PDGF.

## Cc1ccc(NC(=O)c2ccc(CN3CCN(C)CC3)cc2)cc1Nc1nccc(-c2cccnc2)n1 [imatinib]
[1]; compared to untreated control 28 vessels
  myointimal lesions: only minor lesions

## O=C(O)C(Cl)Cl [DCA, dichloroacetate]
[1]; DCA treatment for 28 days via drinking water (0.75 g/L), p=0.006 vs. untreated 28-day control (24.2±3.5%)
  luminal obliteration (intimal hyperplasia): 7.9±6.3%
[1]; delayed DCA treatment starting on day 14, p=0.001 vs. untreated 28-day control
  luminal obliteration (neointimal formation): 3.5±2.9%
[1]; in vivo, after mechanical endothelial denudation
  vessel re-endothelialization: does not impair; also recorded: did not prevent vessel re-endothelialization; also recorded: nor inhibited vessel re-endothelialization
[2]
  side-effects or off-target effects: didn't show any side-effects or off-target effects

## O=S(=O)(O)c1cc(N=C=S)ccc1C=Cc1ccc(N=C=S)cc1S(=O)(=O)O [DIDS]
Human vascular SMCs
  SMC ΔΨm: caused ΔΨm hyperpolarization; also recorded: increased
Human vascular SMCs; staurosporine-induced
  apoptosis: rendered SMCs resistant; also recorded: reduced
